Assay results from US20080039533A1, “Bioactive Compositions Comprising Triazines” (3M INNOVATIVE PROPERTIES COMPANY, priority 2003, published 2008).
≈ marks a conversion by molar mass, not a printed value.

Experiment: physchem
Settings: buffer solution without triazine compound

solubility (pH 6.05, aqueous buffer): 20 µg/mL (≈ 83.2 µM) | solubility (pH 7.82, aqueous buffer): 1.2 µg/mL (≈ 4.99 µM)
Structure (SMILES): CC(C)Cn1cnc2c(N)nc3ccccc3c21 [Imiquimod]
